# Source: US12385058B2, “Herbicide tolerance protein, encoding gene thereof and use thereof” (Beijing Dabeinong Biotechnology Co., Ltd., priority 2018, dated 2025)
# Tested on: maize plants
# Test: Herbicide tolerance of transgenic maize T1 plants (spraying, damage degree)
# Assay type: in vivo
# Details: 144 g ai/ha (8x Tri.)
# Protocol: The degree of damage caused by the herbicide was measured for each plant according to the plant growth status 3 days after spraying (3 DAT), 7 days after spraying (7 DAT), 14 days after spraying (14 DAT) and 21 days after spraying (21 DAT): a growth status equivalent to that of the untreated plants is defined as having a damage degree of 0%; the case where leaves are locally chlorotic and yellow but the normal plant growth is substantially not affected is defined as having a damage degree of 50%; and the case where the whole plant is purple and dying is defined as having a damage degree of 100%. The maize plants into which the ALT02M1-02 nucleotide sequence was introduced were of three strains in total (S15, S16 and S17), the maize plants into which the ALT02M2-02 nucleotide sequence was introduced were of three strains in total (S18, S19 and S20), the maize plants into which the ALT02M3-02 nucleotide sequence was introduced were of three strains in total (S21, S22 and S23), the maize plants into which the ALT02-02 nucleotide sequence was introduced were of three strains in total (S24, S25 and S26), the control maize plants were of two strains in total (S27 and S28), and the wild-type maize plants were of one strain in total (CK2); and 10-15 plants were selected from each strain and tested.
# [1] = maize genotype CK2 (wild-type maize plants)
# [2] = maize genotype S15 (ALT02M1-02 introduced)
# [3] = maize genotype S16 (ALT02M1-02 introduced)
# [4] = maize genotype S17 (ALT02M1-02 introduced)
# [5] = maize genotype S18 (ALT02M2-02 introduced)
# [6] = maize genotype S19 (ALT02M2-02 introduced)
# [7] = maize genotype S20 (ALT02M2-02 introduced)
# [8] = maize genotype S21 (ALT02M3-02 introduced)
# [9] = maize genotype S22 (ALT02M3-02 introduced)
# [10] = maize genotype S23 (ALT02M3-02 introduced)
# [11] = maize genotype S24 (ALT02-02 introduced)
# [12] = maize genotype S25 (ALT02-02 introduced)
# [13] = maize genotype S26 (ALT02-02 introduced)
# [14] = maize genotype S27 (control maize plants, DBN100830N)
# [15] = maize genotype S28 (control maize plants, DBN100830N)
substance,measurement,setting,value
"methyl 2-[N-(4-methoxy-6-methyl-1,3,5-triazin-2-yl)-N-methylcarbamoylaminosulfonyl]benzoate [tribenuron-methyl]",Average damage % 3DAT,[1],46%
same,Average damage % 7DAT,[1],86%
same,Average damage % 14DAT,[1],100%
same,Average damage % 21DAT,[1],100%
same,Average damage % 3DAT,[2],5%
same,Average damage % 7DAT,[2],0%
same,Average damage % 14DAT,[2],0%
same,Average damage % 21DAT,[2],0%
same,Average damage % 3DAT,[3],6%
same,Average damage % 7DAT,[3],0%
same,Average damage % 14DAT,[3],0%
same,Average damage % 21DAT,[3],0%
same,Average damage % 3DAT,[4],3%
same,Average damage % 7DAT,[4],0%
same,Average damage % 14DAT,[4],0%
same,Average damage % 21DAT,[4],0%
same,Average damage % 3DAT,[5],0%
same,Average damage % 7DAT,[5],0%
same,Average damage % 14DAT,[5],0%
same,Average damage % 21DAT,[5],0%
same,Average damage % 3DAT,[6],0%
same,Average damage % 7DAT,[6],0%
same,Average damage % 14DAT,[6],0%
same,Average damage % 21DAT,[6],0%
same,Average damage % 3DAT,[7],0%
same,Average damage % 7DAT,[7],0%
same,Average damage % 14DAT,[7],0%
same,Average damage % 21DAT,[7],0%
same,Average damage % 3DAT,[8],3%
same,Average damage % 7DAT,[8],0%
same,Average damage % 14DAT,[8],0%
same,Average damage % 21DAT,[8],0%
same,Average damage % 3DAT,[9],2%
same,Average damage % 7DAT,[9],0%
same,Average damage % 14DAT,[9],0%
same,Average damage % 21DAT,[9],0%
same,Average damage % 3DAT,[10],0%
same,Average damage % 7DAT,[10],0%
same,Average damage % 14DAT,[10],0%
same,Average damage % 21DAT,[10],0%
same,Average damage % 3DAT,[11],14%
same,Average damage % 7DAT,[11],5%
same,Average damage % 14DAT,[11],0%
same,Average damage % 21DAT,[11],0%
same,Average damage % 7DAT,[12],4%
same,Average damage % 14DAT,[12],0%
same,Average damage % 21DAT,[12],0%
same,Average damage % 3DAT,[13],20%
same,Average damage % 7DAT,[13],7%
same,Average damage % 14DAT,[13],0%
same,Average damage % 21DAT,[13],0%
same,Average damage % 3DAT,[14],61%
same,Average damage % 7DAT,[14],82%
same,Average damage % 14DAT,[14],100%
same,Average damage % 21DAT,[14],100%
same,Average damage % 3DAT,[15],53%
same,Average damage % 7DAT,[15],78%
same,Average damage % 14DAT,[15],100%
same,Average damage % 21DAT,[15],100%
